Common to all, as to assay type: cell-based
Assay [1] concerns Mannheimia haemolytica MH 13093 (XB0472-6014.1, BRD field isolate). Briefly: MIC, broth-microdilution (CLSI VET01-A4), strain MH 13093. Particulars: Mannheimia haemolytica strain MH 13093, broth-microdilution; unit assumed. The method in brief:
(§1)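 Doubling dilution series in trays; visual read, MIC = lowest conc. with no visible turbidity; interpretation per CLSI VET01-S3.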
In general terms: In broth dilution the organism is exposed to a series of concentrations in liquid medium.

Assay [2] has as its system Mannheimia haemolytica MH 10720 (154, BRD field isolate). The experiment in a line: MIC, broth-microdilution (CLSI VET01-A4), strain MH 10720. The conditions noted are these: Mannheimia haemolytica strain MH 10720, broth-microdilution; unit assumed. The method in brief:
as §1

For assay [3], the system named is Mannheimia haemolytica MH 13065 (XB0446-6003.9, BRD field isolate). Briefly: MIC, broth-microdilution (CLSI VET01-A4), strain MH 13065. Particulars: Mannheimia haemolytica strain MH 13065, broth-microdilution; unit assumed. The method in brief: as §1
For assay [4], the system named is Pasteurella multocida PM 12080 (IV102277-0093, BRD field isolate). Briefly: MIC, broth-microdilution (CLSI VET01-A4), strain PM 12080. The conditions noted are these: Pasteurella multocida strain PM 12080, broth-microdilution; unit assumed. The method in brief: as §1
Assay [5] concerns Mannheimia haemolytica MH 6374 (ATCC 33396, reference strain). The experiment in a line: MIC, broth-microdilution (CLSI VET01-A4), strain MH 6374. Particulars: Mannheimia haemolytica strain MH 6374, broth-microdilution; unit assumed. In short, it runs like this: as §1
Assay [6] concerns Pasteurella multocida PM 6267 (P 2225 (L386), reference strain, mouse infection strain). The experiment in a line: MIC, broth-microdilution (CLSI VET01-A4), strain PM 6267. The conditions noted are these: Pasteurella multocida strain PM 6267, broth-microdilution; unit assumed. The method in brief:
as §1

The test system of assay [7] is Mannheimia haemolytica MH 12587 (1071, BRD field isolate, macrolide-resistance: erm+, E+). Briefly: MIC, broth-microdilution (CLSI VET01-A4), strain MH 12587. The conditions noted are these: Mannheimia haemolytica strain MH 12587, broth-microdilution; unit assumed. In short, it runs like this: as §1
Assay [8] deals with Pasteurella multocida PM 10775 (080130003051, BRD field isolate). The experiment in a line: MIC, broth-microdilution (CLSI VET01-A4), strain PM 10775. The conditions noted are these: Pasteurella multocida strain PM 10775, broth-microdilution; unit assumed. The method in brief: as §1
The subject of assay [9] is Mannheimia haemolytica MH 6357 (M7/2, reference strain, cattle infection strain). Briefly: MIC, broth-microdilution (CLSI VET01-A4), strain MH 6357. Particulars: Mannheimia haemolytica strain MH 6357, broth-microdilution; unit assumed. The method in brief: as §1
The test system of assay [10] is Pasteurella multocida PM 6391 (ATCC 43137, reference strain). The experiment in a line: MIC, broth-microdilution (CLSI VET01-A4), strain PM 6391. The conditions noted are these: Pasteurella multocida strain PM 6391, broth-microdilution; unit assumed. In short, it runs like this: as §1

The structures appear in SMILES notation. Values after ≈ are worked out from the molar mass of the structure shown.

Take `C=CCNCc1ccc(C#Cc2ccc(C(=O)N[C@H](C(=O)NO)C(C)=NOC)cc2)cc1` [Compound 379]: the MIC MH 13093 in assay [1] is 1.6 µg/mL (≈ 3.68 µM). Further, in assay [2], the MIC MH 10720 stood at 0.8 µg/mL (≈ 1.84 µM). In addition, the MIC MH 13065 in assay [3] was found to be 1.6 µg/mL (≈ 3.68 µM). The MIC PM 12080 in assay [4] is 0.4 µg/mL (≈ 0.921 µM). In [5], this compound had an MIC MH 6374 of 1.6 µg/mL (≈ 3.68 µM). Moreover, the MIC PM 6267 in [6] was found to be 3.1 µg/mL (≈ 7.13 µM). Moreover, the MIC MH 12587 in assay [7] is 0.4 µg/mL (≈ 0.921 µM). The compound further yielded an MIC PM 10775 in assay [8] of 0.4 µg/mL (≈ 0.921 µM). Also, in assay [9], the MIC MH 6357 was found to be 0.8 µg/mL (≈ 1.84 µM). Besides, the MIC PM 6391 in assay [10] was ≤ 0.1 µg/mL.
For `COCCNCc1ccc(C#Cc2ccc(C(=O)N[C@H](C(=O)NO)C(C)=NOC)cc2)cc1` [Compound 380], in [1], the MIC MH 13093 worked out at 6.3 µg/mL (≈ 13.9 µM). In addition, the MIC MH 10720 in assay [2] was 3.1 µg/mL (≈ 6.85 µM). Also, the MIC MH 13065 in [3] was 3.1 µg/mL (≈ 6.85 µM). In [4], the MIC PM 12080 came to 0.8 µg/mL (≈ 1.77 µM). For the same compound, in assay [5], the MIC MH 6374 is 6.3 µg/mL (≈ 13.9 µM). Moreover, the MIC PM 6267 in [6] amounted to 6.3 µg/mL (≈ 13.9 µM). This compound also showed an MIC MH 12587 in [7] of 0.8 µg/mL (≈ 1.77 µM). Moreover, the MIC PM 10775 in assay [8] amounted to 1.6 µg/mL (≈ 3.54 µM). Further, the MIC MH 6357 in assay [9] amounted to 3.1 µg/mL (≈ 6.85 µM). The compound also had an MIC PM 6391 in assay [10] of 0.2 µg/mL (≈ 0.442 µM).
For `CON=C(C)[C@H](NC(=O)c1ccc(C#Cc2ccc(CN3CCOCC3)cc2)cc1)C(=O)NO` [Compound 381], in assay [1], the MIC MH 13093 is 1.6 µg/mL (≈ 3.44 µM). Also, in [2], the MIC MH 10720 is 0.4 µg/mL (≈ 0.861 µM). Moreover, the MIC MH 13065 in assay [3] came to 1.6 µg/mL (≈ 3.44 µM). In addition, in assay [4], the MIC PM 12080 was determined as 0.2 µg/mL (≈ 0.431 µM). In assay [5], this compound returned an MIC MH 6374 of 3.1 µg/mL (≈ 6.67 µM). The same compound yielded an MIC PM 6267 in assay [6] of 1.6 µg/mL (≈ 3.44 µM). The MIC MH 12587 in assay [7] was found to be 1.6 µg/mL (≈ 3.44 µM). The compound further gave an MIC PM 10775 in assay [8] of 0.2 µg/mL (≈ 0.431 µM). The compound also returned an MIC MH 6357 in assay [9] of 1.6 µg/mL (≈ 3.44 µM). For the same compound, the MIC PM 6391 in assay [10] was ≤ 0.1 µg/mL.
`CON=C(C)[C@H](NC(=O)c1ccc(C#Cc2ccc(CNCc3ccccc3)cc2)cc1)C(=O)NO` [Compound 382] had an MIC MH 13093 in assay [1] of 0.8 µg/mL (≈ 1.65 µM). Further, the MIC MH 10720 in assay [2] came to 0.8 µg/mL (≈ 1.65 µM). The MIC MH 13065 in [3] amounted to 0.8 µg/mL (≈ 1.65 µM). For the same compound, the MIC PM 12080 in assay [4] was determined as 0.4 µg/mL (≈ 0.825 µM). In [5], the MIC MH 6374 amounted to 1.6 µg/mL (≈ 3.3 µM). The MIC PM 6267 in assay [6] is 0.8 µg/mL (≈ 1.65 µM). The same compound yielded an MIC MH 12587 in assay [7] of 0.2 µg/mL (≈ 0.413 µM). Besides, in assay [8], the MIC PM 10775 came to 0.4 µg/mL (≈ 0.825 µM). This compound had an MIC MH 6357 in [9] of 0.8 µg/mL (≈ 1.65 µM). The MIC PM 6391 in assay [10] is ≤ 0.1 µg/mL.
In assay [1], `CON=C(C)[C@H](NC(=O)c1ccc(C#Cc2ccc(CNCc3ccc(OC)cc3)cc2)cc1)C(=O)NO` [Compound 383] displayed an MIC MH 13093 of 1.6 µg/mL (≈ 3.11 µM). The MIC MH 10720 in [2] was 0.8 µg/mL (≈ 1.55 µM). Moreover, in assay [3], the MIC MH 13065 turned out to be 1.6 µg/mL (≈ 3.11 µM). In [4], this compound had an MIC PM 12080 of 0.4 µg/mL (≈ 0.777 µM). The MIC MH 6374 in assay [5] was 1.6 µg/mL (≈ 3.11 µM). The MIC PM 6267 in assay [6] is 6.3 µg/mL (≈ 12.2 µM). In [7], this compound yielded an MIC MH 12587 of 0.4 µg/mL (≈ 0.777 µM). Also, the MIC PM 10775 in [8] was determined as 0.8 µg/mL (≈ 1.55 µM). In addition, the MIC MH 6357 in assay [9] came out at 0.8 µg/mL (≈ 1.55 µM). For the same compound, the MIC PM 6391 in assay [10] was ≤ 0.1 µg/mL.
In [1], `CON=C(C)[C@H](NC(=O)c1ccc(C#Cc2ccc(CN3CCCC3)cc2)cc1)C(=O)NO` [Compound 384] returned an MIC MH 13093 of 6.3 µg/mL (≈ 14 µM). The compound further returned an MIC MH 10720 in assay [2] of 3.1 µg/mL (≈ 6.91 µM). This compound had an MIC MH 13065 in assay [3] of 6.3 µg/mL (≈ 14 µM). Besides, the MIC PM 12080 in assay [4] stood at 1.6 µg/mL (≈ 3.57 µM). In [5], this compound gave an MIC MH 6374 of 12.5 µg/mL (≈ 27.9 µM). In assay [6], this compound returned an MIC PM 6267 of 12.5 µg/mL (≈ 27.9 µM). Also, the MIC MH 12587 in assay [7] is 1.6 µg/mL (≈ 3.57 µM). Further, the MIC PM 10775 in assay [8] was determined as 3.1 µg/mL (≈ 6.91 µM). This compound gave an MIC MH 6357 in [9] of 6.3 µg/mL (≈ 14 µM). This compound also yielded an MIC PM 6391 in assay [10] of 0.4 µg/mL (≈ 0.892 µM).
The compound `CON=C(C)[C@H](NC(=O)c1ccc(C#Cc2ccc(CNC3CCC3)cc2)cc1)C(=O)NO` [Compound 385] returned an MIC MH 13093 in assay [1] of 6.3 µg/mL (≈ 14 µM). Also, the MIC MH 10720 in assay [2] amounted to 1.6 µg/mL (≈ 3.57 µM). For the same compound, in assay [3], the MIC MH 13065 turned out to be 3.1 µg/mL (≈ 6.91 µM). The compound further gave an MIC PM 12080 in assay [4] of 0.4 µg/mL (≈ 0.892 µM). The MIC MH 6374 in assay [5] amounted to 6.3 µg/mL (≈ 14 µM). Also, the MIC PM 6267 in [6] worked out at 25 µg/mL (≈ 55.7 µM). In addition, the MIC MH 12587 in assay [7] is 1.6 µg/mL (≈ 3.57 µM). Also, the MIC PM 10775 in assay [8] came out at 0.8 µg/mL (≈ 1.78 µM). Besides, in assay [9], the MIC MH 6357 was determined as 3.1 µg/mL (≈ 6.91 µM). Moreover, the MIC PM 6391 in [10] came out at 0.2 µg/mL (≈ 0.446 µM).
The compound `CON=C(C)[C@H](NC(=O)c1ccc(C#Cc2ccc(CNC3CCCC3)cc2)cc1)C(=O)NO` [Compound 386] came in with an MIC MH 13093 in [1] of 12.5 µg/mL (≈ 27 µM). In assay [2], the MIC MH 10720 amounted to 1.6 µg/mL (≈ 3.46 µM). In addition, the MIC MH 13065 in assay [3] turned out to be 12.5 µg/mL (≈ 27 µM). Moreover, in [4], the MIC PM 12080 was 0.4 µg/mL (≈ 0.865 µM). The same compound displayed an MIC MH 6374 in [5] of 12.5 µg/mL (≈ 27 µM). The MIC PM 6267 in [6] worked out at 50 µg/mL (≈ 108 µM). In addition, in [7], the MIC MH 12587 worked out at 1.6 µg/mL (≈ 3.46 µM). In addition, the MIC PM 10775 in assay [8] worked out at 1.6 µg/mL (≈ 3.46 µM). The compound further showed an MIC MH 6357 in [9] of 12.5 µg/mL (≈ 27 µM). The MIC PM 6391 in assay [10] came to 0.4 µg/mL (≈ 0.865 µM).

The values above are taken from patent US11034650B2, “Compounds useful for treating a Mannheimia haemolytica or Histophilus somni infection” (Intervet Inc., priority 2016, dated 2021).
